Source: ChEMBL document CHEMBL1144848, “Interaction of a cyclostreptin analogue with the microtubule taxoid site: the covalent reaction rapidly follows binding” (J Nat Prod, 2008)
Calls of active or inactive are those of the source. No cut-off for these calls is given here.

Experiments:
[1] = organism: Bos taurus; test: Enhancement of bovine tubulin stability at <=0 degC
[2] = organism: Bos taurus; test: Binding affinity to bovine tubulin assessed as drug level in bound to per mole of colchicine site at <=0 degC after 60 mins by total binding assay
[3] = organism: Bos taurus; test: Binding affinity to bovine tubulin at 5 uM in <=0 degC after 60 mins; details: tested as the 14C-labelled form
[4] = organism: Bos taurus; test: Binding affinity to bovine microtubules assessed as drug level in bound to per mole taxoid site at <=0 degC after 60 mins by covalent binding assay
[5] = organism: Bos taurus; test: Binding affinity to bovine tubulin assessed as drug level in bound to per mole of colchicine site at <=20 degC after 60 mins by total binding assay
[6] = organism: Bos taurus; test: Binding affinity to bovine microtubules assessed as drug level in bound to taxoid site at <=0 degC after 1 min by covalent binding assay
[7] = organism: Bos taurus; test: Binding affinity to bovine tubulin assessed as drug level in bound to per mole of colchicine site at <=20 degC after 1 min by covalent binding assay
[8] = organism: Bos taurus; test: Binding affinity to bovine microtubules assessed as drug level in bound to per mole taxoid site at <=0 degC after 1 min by covalent binding assay
[9] = organism: Bos taurus; test: Binding affinity to bovine tubulin at 5 uM in <=20 degC after 60 mins; details: tested as the 14C-labelled form
[10] = organism: Bos taurus; test: Binding affinity to bovine tubulin assessed as drug level in bound to per mole of colchicine site at <=0 degC after 1 min by total binding assay
[11] = organism: Bos taurus; test: Binding affinity to bovine microtubules assessed as drug level in bound to per mole taxoid site at <=0 degC after 60 mins by total binding assay
[12] = organism: Bos taurus; test: Binding affinity to bovine tubulin assessed as drug level in bound to per mole of colchicine site at <=20 degC after 60 mins by covalent binding assay
[13] = organism: Bos taurus; test: Binding affinity to bovine tubulin assessed as drug level in bound to per mole of colchicine site at <=20 degC after 1 min by total binding assay
[14] = organism: Bos taurus; test: Binding affinity to bovine microtubules assessed as drug level in bound to per mole taxoid site at <=0 degC after 1 min by total binding assay
[15] = organism: Bos taurus; test: Binding affinity to bovine microtubules assessed as drug level in bound to taxoid site at <=20 degC after 1 min by total binding assay
[16] = organism: Bos taurus; test: Binding affinity to bovine microtubules assessed as drug level in bound to taxoid site at <=20 degC after 60 mins by total binding assay
[17] = organism: Bos taurus; test: Binding affinity to bovine microtubules assessed as drug level in bound to taxoid site at <=0 degC after 60 mins by covalent binding assay

Row | Activity [1] | stoichiometry [2] | Activity [3] | Activity [4] | stoichiometry [5] | Activity [6] | stoichiometry [7] | Activity [8] | Activity [9] | Activity [10] | Activity [11] | Activity [12] | Activity [13] | stoichiometry [14] | Activity [15] | Activity [16] | Activity [17] | Structure (SMILES)
1 | Active |  |  |  |  |  |  |  |  |  |  |  |  |  |  |  |  | CC(=O)O[C@H]1C(=O)[C@@]2(C)[C@H]([C@H](OC(=O)c3ccccc3)[C@]3(O)C[C@H](OC(=O)[C@H](O)[C@@H](NC(=O)c4ccccc4)c4ccccc4)C(C)=C1C3(C)C)[C@]1(OC(C)=O)CO[C@@H]1C[C@@H]2O
2 |  | 0.06 mol/mol | inactive | 0.35 mol/mol | 0.81 mol/mol | 0.46 mol/mol | 0.7 mol/mol | 0.13 mol/mol | inactive | 0.01 mol/mol | 0.38 mol/mol | 0.88 mol/mol | 0.6 mol/mol | 0.14 mol/mol | 0.53 mol/mol | 0.93 mol/mol | 0.81 mol/mol | CC(=O)O[C@H]1[C@H](C)[C@@H](O)[C@H]2[C@H]1C=C(C)[C@@H]1C[C@@H]3[C@@H](C4=C5O[C@]3(C)CC[C@H](OC4=O)[C@H]5C)[C@H]21
